From US7524861B2, “Process for the preparation of a hydrate of an anthranilic acid derivative” (priority 2002, dated 2009)

Test: Dehydration/re-hydration study (weight change over desiccants, then 33-95% RH, KF water content)
Format: physicochemical
Details: for KF moisture result: dehydration/rehydration sample
Procedure: The hexahydrate produced in Example 1 was analysed as follows. Four desiccator cabinets were prepared to contain open dishes of the following saturated salt solutions, to achieve the following approximate relative humidities (RH).
Dehydration of samples was carried out by storing them over silica gel or over P2O5 at reduced pressure (65 mm Hg). All studies were performed at ambient laboratory temperature (15-22° C.).
During this study, samples were dispensed to pre-equilibrated weighing bottles as in the hygroscopicity study, and were then stored over silica gel without reduced pressure, then over […] under reduced pressure (65 mm Hg) to dehydrate the hydrate. Once a stable weight was achieved over P2O5, samples were re-hydrated by storing them at 33% RH to 95% RH, in parallel with the hygroscopicity study as described above.
Water contents were measured by coulometric KF (Karl Fischer) titration.

Cumulative % change Dehydration/Rehydration (75% RH, cumulative time 2441.25 h): 1.26%
Cumulative % change Dehydration/Rehydration (75% RH, cumulative time 2482.00 h): 1.23%
Cumulative % change Dehydration/Rehydration (75% RH, cumulative time 2577.75 h): 1.35%
Cumulative % change Dehydration/Rehydration (75% RH, cumulative time 2609.75 h): 1.38%
Cumulative % change Dehydration/Rehydration (75% RH, cumulative time 2681.25 h): 1.41%
Cumulative % change Dehydration/Rehydration (75% RH, cumulative time 2770.25 h): 1.36%
Cumulative % change Dehydration/Rehydration (75% RH, cumulative time 2817.75 h): 1.44%
Cumulative % change Dehydration/Rehydration (95% RH, cumulative time 2825.25 h): 2.28%
Cumulative % change Dehydration/Rehydration (95% RH, cumulative time 2841.75 h): 2.73%
Cumulative % change Dehydration/Rehydration (95% RH, cumulative time 2915.75 h): 3.06%
Cumulative % change Dehydration/Rehydration (95% RH, cumulative time 2937.75 h): 3.21%
Cumulative % change Dehydration/Rehydration (95% RH, cumulative time 2991.25 h): 3.25%
Cumulative % change Dehydration/Rehydration (95% RH, cumulative time 3082.25 h): 3.86%
Cumulative % change Dehydration/Rehydration (95% RH, cumulative time 3130.00 h): 4.12%
Cumulative % change Dehydration/Rehydration (95% RH, cumulative time 3182.25 h): 3.99%
Cumulative % change Dehydration/Rehydration (95% RH, cumulative time 3252.25 h): 4.19%
Cumulative % change Dehydration/Rehydration (95% RH, cumulative time 3350.25 h): 4.22%
Cumulative % change Dehydration/Rehydration (95% RH, cumulative time 3422.25 h): 4.35%
Cumulative % change Dehydration/Rehydration (95% RH, cumulative time 3636.25 h): 5.31%
Cumulative % change Dehydration/Rehydration (95% RH, cumulative time 4332.75 h): 5.58%
Cumulative % change Dehydration/Rehydration (P2O5 with vacuum, cumulative time 425.00 h): −10.85%
Cumulative % change Dehydration/Rehydration (P2O5 with vacuum, cumulative time 452.00 h): −11.00%
Cumulative % change Dehydration/Rehydration (P2O5 with vacuum, cumulative time 476.75 h): −11.19%
Cumulative % change Dehydration/Rehydration (P2O5 with vacuum, cumulative time 570.25 h): −11.43%
Cumulative % change Dehydration/Rehydration (P2O5 with vacuum, cumulative time 641.00 h): −11.35%
Cumulative % change Dehydration/Rehydration (P2O5 with vacuum, cumulative time 760.50 h): −11.51%
Cumulative % change Dehydration/Rehydration (P2O5 with vacuum, cumulative time 904.25 h): −11.46%
Cumulative % change Dehydration/Rehydration (P2O5 with vacuum, cumulative time 1071.00 h): −11.54%
Cumulative % change Dehydration/Rehydration (P2O5 with vacuum, cumulative time 1144.00 h): −11.48%
initial water content of the sample (before dehydration): 12.5%
notional water content after dehydration and re-hydration at 33% RH (corresponding to the net weight change): about 11.5%
net weight change after dehydration and re-hydration at 33% RH (dehydrated then re-hydrated at 33% RH): about −1%
final weight change on dehydration (dehydration over increasing desiccating conditions): −11.5%
KF moisture result (95% RH, cumulative time 4332.75 h (end)): (15.81) % w/w
KF moisture result (printed in first 33% RH row (1147.25 h), after dehydration over P2O5): (3.82) % w/w
KF moisture result (printed in first row (silica, no vacuum, 3.00 h), initial value before dehydration): (12.53) % w/w
Cumulative % change Dehydration/Rehydration (re-hydration at 33% RH, cumulative time 1147.25 h): −6.61%
Cumulative % change Dehydration/Rehydration (re-hydration at 33% RH, cumulative time 1150.75 h): −4.80%
Cumulative % change Dehydration/Rehydration (re-hydration at 33% RH, cumulative time 1168.00 h): −2.47%
Cumulative % change Dehydration/Rehydration (re-hydration at 33% RH, cumulative time 1240.75 h): −0.68%
Cumulative % change Dehydration/Rehydration (re-hydration at 33% RH, cumulative time 1268.50 h): −0.62%
Cumulative % change Dehydration/Rehydration (re-hydration at 33% RH, cumulative time 1312.50 h): −0.62%
Cumulative % change Dehydration/Rehydration (re-hydration at 33% RH, cumulative time 1431.25 h): −0.83%
Cumulative % change Dehydration/Rehydration (re-hydration at 33% RH, cumulative time 1502.25 h): −0.66%
Cumulative % change Dehydration/Rehydration (re-hydration at 33% RH, cumulative time 1672.50 h): −0.91%
Cumulative % change Dehydration/Rehydration (re-hydration at 33% RH, cumulative time 1741.50 h): −0.97%
Cumulative % change Dehydration/Rehydration (silica, no vacuum, cumulative time 3.00 h): −2.29%
Cumulative % change Dehydration/Rehydration (silica, no vacuum, cumulative time 8.50 h): −3.58%
Cumulative % change Dehydration/Rehydration (silica, no vacuum, cumulative time 24.50 h): −5.92%
Cumulative % change Dehydration/Rehydration (silica, no vacuum, cumulative time 30.50 h): −6.39%
Cumulative % change Dehydration/Rehydration (silica, no vacuum, cumulative time 56.00 h): −8.06%
Cumulative % change Dehydration/Rehydration (silica, no vacuum, cumulative time 80.00 h): −8.50%
Cumulative % change Dehydration/Rehydration (silica, no vacuum, cumulative time 237.50 h): −8.96%
Cumulative % change Dehydration/Rehydration (silica, no vacuum, cumulative time 288.50 h): −9.07%
Cumulative % change Dehydration/Rehydration (silica, with vacuum, cumulative time 308.00 h): −9.07%
Cumulative % change Dehydration/Rehydration (silica, with vacuum, cumulative time 401.00 h): −8.76%
Structure (SMILES): COc1cc2c(cc1OC)CN(CCc1ccc(NC(=O)c3cc(OC)c(OC)cc3NC(=O)c3cnc4ccccc4c3)cc1)CC2 [Example 1, Quinoline-3-carboxylic acid (2-{4-[2-(6,7-dimethoxy-3,4-dihydro-1H-isoquinolin-2-yl)-ethyl]-phenylcarbamoyl}-4,5-dimethoxy-phenyl)-amide]
